In brackets after ≈: the same amount, converted by molar mass.
Columns and labels:
[1] = tested on: Mycobacterium tuberculosis; test: Antimycobacterial activity against Mycobacterium tuberculosis H37Rv ATCC 27294 microplate alamar blue assay; type: functional
[2] = Selectivity index, ratio of CC50 for african green monkey Vero cells to MIC for Mycobacterium tuberculosis H37Rv ATCC 27294; type: functional

Structure (SMILES): COc1ccc2c(c1)[n+]([O-])c(C(=O)NCc1ccccc1)c(-c1ccccc1)[n+]2[O-]
- IC90 [1]: 14.6 µg/mL (≈ 36.3 µM)

Structure (SMILES): Cc1c(C(=O)NCc2ccc(Cl)cc2)[n+]([O-])c2cc(Cl)c(Cl)cc2[n+]1[O-]
- IC90 [1]: 51.9 µg/mL (≈ 126 µM)

Structure (SMILES): Cc1c(C(=O)NCc2ccc(Cl)cc2)[n+]([O-])c2cc(Cl)ccc2[n+]1[O-]
- IC90 [1]: 29.7 µg/mL (≈ 78.5 µM)

Structure (SMILES): Cc1c(C(=O)NCc2ccc(Br)cc2)[n+]([O-])c2cc(Cl)c(Cl)cc2[n+]1[O-]
- IC90 [1]: 6.92 µg/mL (≈ 15.1 µM)
- Selectivity Index [2]: >5.78

Structure (SMILES): Cc1c(C(=O)NCC(c2ccccc2)c2ccccc2)[n+]([O-])c2cc(Cl)c(Cl)cc2[n+]1[O-]
- IC90 [1]: 66.5 µg/mL (≈ 142 µM)

Structure (SMILES): COc1ccc2c(c1)[n+]([O-])c(C(=O)Nc1ccccc1)c(-c1ccccc1)[n+]2[O-]
- IC90 [1]: 26.8 µg/mL (≈ 69.3 µM)

Structure (SMILES): O=C(Nc1ccccc1)c1c(-c2ccccc2)[n+]([O-])c2ccc(F)cc2[n+]1[O-]
- IC90 [1]: 17.9 µg/mL (≈ 47.8 µM)

Structure (SMILES): Cc1ccc2c(c1)[n+]([O-])c(C(=O)NCc1ccc(Cl)cc1)c(C)[n+]2[O-]
- IC90 [1]: 14.6 µg/mL (≈ 40.7 µM)

Structure (SMILES): Cc1c(C(=O)NCc2ccc(Cl)cc2)[n+]([O-])c2ccccc2[n+]1[O-]
- IC90 [1]: 11 µg/mL (≈ 32.1 µM)

Structure (SMILES): Cc1c(C(=O)NCc2ccc(C(F)(F)F)cc2)[n+]([O-])c2cc(F)ccc2[n+]1[O-]
- IC90 [1]: 4.48 µg/mL (≈ 11.3 µM)
- Selectivity Index [2]: >8.94

Structure (SMILES): Cc1ccc(CNC(=O)c2c(C)[n+]([O-])c3ccc(Cl)cc3[n+]2[O-])cc1
- IC90 [1]: 32 µg/mL (≈ 89.5 µM)

Structure (SMILES): Cc1c(C(=O)NCc2ccc(C(F)(F)F)cc2)[n+]([O-])c2cc(Cl)ccc2[n+]1[O-]
- IC90 [1]: 6.13 µg/mL (≈ 14.9 µM)
- Selectivity Index [2]: >6.52

Structure (SMILES): Cc1ccc(CNC(=O)c2c(C)[n+]([O-])c3ccc(C)cc3[n+]2[O-])cc1
- IC90 [1]: 99.9 µg/mL (≈ 296 µM)

Structure (SMILES): Cc1c(C(=O)NCc2ccc(C(F)(F)F)cc2)[n+]([O-])c2cc(C(F)(F)F)ccc2[n+]1[O-]
- IC90 [1]: 3.38 µg/mL (≈ 7.59 µM)
- Selectivity Index [2]: >11.82

Structure (SMILES): Cc1ccc(CNC(=O)c2c(C)[n+]([O-])c3cc(Cl)c(Cl)cc3[n+]2[O-])cc1
- IC90 [1]: > 100 µg/mL

Structure (SMILES): Cc1ccc2c(c1)[n+]([O-])c(C(=O)NCc1ccc(C(F)(F)F)cc1)c(C)[n+]2[O-]
- IC90 [1]: > 100 µg/mL

Structure (SMILES): Cc1ccc2c(c1)[n+]([O-])c(C(=O)Nc1ccccc1)c(-c1ccccc1)[n+]2[O-]
- IC90 [1]: 24.6 µg/mL (≈ 66.4 µM)

Structure (SMILES): Cc1c(C(=O)NCc2ccc(Br)cc2)[n+]([O-])c2ccccc2[n+]1[O-]
- IC90 [1]: 15.6 µg/mL (≈ 40.2 µM)

Structure (SMILES): O=C(Nc1ccccc1)c1c(-c2ccccc2)[n+]([O-])c2cc(Cl)c(Cl)cc2[n+]1[O-]
- IC90 [1]: 6.63 µg/mL (≈ 15.6 µM)
- Selectivity Index [2]: 0.84

Structure (SMILES): O=C(NCc1ccccc1)c1c(-c2ccccc2)[n+]([O-])c2ccc(F)cc2[n+]1[O-]
- IC90 [1]: 3.86 µg/mL (≈ 9.91 µM)
- Selectivity Index [2]: 4.62

Structure (SMILES): Cc1ccc(CNC(=O)c2c(C)[n+]([O-])c3ccccc3[n+]2[O-])cc1
- IC90 [1]: 6.76 µg/mL (≈ 20.9 µM)
- Selectivity Index [2]: >5.92

Structure (SMILES): Cc1c(C(=O)NCc2ccc(C(F)(F)F)cc2)[n+]([O-])c2ccccc2[n+]1[O-]
- IC90 [1]: 16.8 µg/mL (≈ 44.6 µM)

Structure (SMILES): Cc1c(C(=O)NCc2ccc3c(c2)OCO3)[n+]([O-])c2ccccc2[n+]1[O-]
- IC90 [1]: 22.8 µg/mL (≈ 64.4 µM)

Structure (SMILES): O=C(NCc1ccccc1)c1c(-c2ccccc2)[n+]([O-])c2ccc(Cl)cc2[n+]1[O-]
- IC90 [1]: 3.39 µg/mL (≈ 8.35 µM)
- Selectivity Index [2]: >11.79

Structure (SMILES): Cc1c(C(=O)NCc2ccc3c(c2)OCO3)[n+]([O-])c2cc(Cl)ccc2[n+]1[O-]
- IC90 [1]: 6.99 µg/mL (≈ 18 µM)
- Selectivity Index [2]: >5.72

Structure (SMILES): O=C(NCc1ccccc1)c1c(-c2ccccc2)[n+]([O-])c2ccccc2[n+]1[O-]
- IC90 [1]: 6.71 µg/mL (≈ 18.1 µM)
- Selectivity Index [2]: >5.96

Structure (SMILES): CO[C@H]1/C=C/O[C@@]2(C)Oc3c(C)c(O)c4c(O)c(c(/C=N/N5CCN(C)CC5)c(O)c4c3C2=O)NC(=O)/C(C)=C\C=C\[C@H](C)[C@H](O)[C@@H](C)[C@@H](O)[C@@H](C)[C@H](OC(C)=O)[C@@H]1C [RIFAMPIN]
- IC90 [1]: 0.015 µg/mL (≈ 0.0182 µM)
- Selectivity Index [2]: >800

Structure (SMILES): O=C(Nc1ccccc1)c1c(-c2ccccc2)[n+]([O-])c2ccccc2[n+]1[O-]
- IC90 [1]: 27 µg/mL (≈ 75.5 µM)

Structure (SMILES): Cc1c(C(=O)NCC(c2ccccc2)c2ccccc2)[n+]([O-])c2cc(Cl)ccc2[n+]1[O-]
- IC90 [1]: 60.4 µg/mL (≈ 139 µM)

Structure (SMILES): Cc1ccc2c(c1)[n+]([O-])c(C(=O)NCc1ccc3c(c1)OCO3)c(C)[n+]2[O-]
- IC90 [1]: 13.2 µg/mL (≈ 36 µM)

Structure (SMILES): Cc1ccc2c(c1)[n+]([O-])c(C(=O)NCC(c1ccccc1)c1ccccc1)c(C)[n+]2[O-]
- IC90 [1]: 16.8 µg/mL (≈ 40.6 µM)

Structure (SMILES): Cc1ccc2c(c1)[n+]([O-])c(C(=O)NCc1ccc(Br)cc1)c(C)[n+]2[O-]
- IC90 [1]: 78.2 µg/mL (≈ 194 µM)

Structure (SMILES): O=C(Nc1ccccc1)c1c(-c2ccccc2)[n+]([O-])c2ccc(Cl)cc2[n+]1[O-]
- IC90 [1]: 6.71 µg/mL (≈ 17.1 µM)
- Selectivity Index [2]: 1.34

Structure (SMILES): Cc1ccc2c(c1)[n+]([O-])c(C(=O)NCc1ccccc1)c(-c1ccccc1)[n+]2[O-]
- IC90 [1]: 13.9 µg/mL (≈ 36.1 µM)

Structure (SMILES): O=C(NCCc1ccccc1)c1c(-c2ccccc2)[n+]([O-])c2ccccc2[n+]1[O-]
- IC90 [1]: 18.6 µg/mL (≈ 48.3 µM)

Structure (SMILES): Cc1c(C(=O)NCc2ccc(Br)cc2)[n+]([O-])c2cc(Cl)ccc2[n+]1[O-]
- IC90 [1]: 5.33 µg/mL (≈ 12.6 µM)
- Selectivity Index [2]: >7.5

Structure (SMILES): O=C(NCc1ccccc1)c1c(-c2ccccc2)[n+]([O-])c2ccc(C(F)(F)F)cc2[n+]1[O-]
- IC90 [1]: > 100 µg/mL

Structure (SMILES): O=C(Nc1ccccc1)c1c(-c2ccccc2)[n+]([O-])c2ccc(C(F)(F)F)cc2[n+]1[O-]
- IC90 [1]: 19.1 µg/mL (≈ 44.9 µM)

Structure (SMILES): Cc1c(C(=O)NCC(c2ccccc2)c2ccccc2)[n+]([O-])c2ccccc2[n+]1[O-]
- IC90 [1]: 16 µg/mL (≈ 40 µM)

Structure (SMILES): Cc1c(C(=O)NCc2ccc3c(c2)OCO3)[n+]([O-])c2cc(Cl)c(Cl)cc2[n+]1[O-]
- IC90 [1]: 34.9 µg/mL (≈ 82.7 µM)

Structure (SMILES): Cc1c(C(=O)NCc2ccc(C(F)(F)F)cc2)[n+]([O-])c2cc(Cl)c(Cl)cc2[n+]1[O-]
- IC90 [1]: 6.58 µg/mL (≈ 14.7 µM)
- Selectivity Index [2]: >6.08

Structure (SMILES): O=C(NCc1ccccc1)c1c(-c2ccccc2)[n+]([O-])c2cc(Cl)c(Cl)cc2[n+]1[O-]
- IC90 [1]: 25.4 µg/mL (≈ 57.8 µM)

Structure (SMILES): O=C(NCCc1ccccc1)c1c(-c2ccccc2)[n+]([O-])c2ccc(Cl)cc2[n+]1[O-]
- IC90 [1]: 15.4 µg/mL (≈ 36.7 µM)

Structure (SMILES): COc1ccc2c(c1)[n+]([O-])c(C(=O)NCc1ccc(C(F)(F)F)cc1)c(C)[n+]2[O-]
- IC90 [1]: > 100 µg/mL

From ChEMBL document CHEMBL1250471, “Synthesis and antimycobacterial activity of new quinoxaline-2-carboxamide 1,4-di-N-oxide derivatives” (2010)
